Reference: patent US20080090805A1, “CB-1 MODULATING COMPOUNDS AND THEIR USE” (ACADIA PHARMACEUTICALS INC., priority 2005, published 2008)

Assay: Clearance study, liver microsomes (rats)
Conditions: rat, pH 7.4

| Structure (SMILES) | microsomal CLint at 1 μM |
| --- | --- |
| CC(C)CNC(=O)c1ccc2c(c1)N=C(c1ccc(F)cc1)c1ccccc1S2 [drawing 1761] | 125 µL/min/mg |
| O=C(NCc1ccco1)c1ccc2c(c1)N=C(c1ccc(Cl)c(Cl)c1)c1ccccc1S2 [drawing 1666] | 25 µL/min/mg |
| O=C(NCc1ccccc1)c1ccc2c(c1)N=C(c1ccc(Cl)cc1)c1ccccc1S2 [drawing 1801] | 63 µL/min/mg |
| O=C(NCc1ccccn1)c1ccc2c(c1)N=C(c1ccc(Cl)cc1)c1ccccc1S2 [drawing 1760] | 46 µL/min/mg |
| O=C(NCc1ccco1)c1ccc2c(c1)N=C(c1cccc(Cl)c1)c1ccccc1S2 [drawing 1684] | 93 µL/min/mg |
| O=C(NCCc1ccc(Cl)cc1)c1ccc2c(c1)N=C(c1cccc(Cl)c1)c1ccccc1S2 [drawing 1739] | 83 µL/min/mg |

Continued, values first:

| microsomal CLint at 1 μM | Structure (SMILES) |
| --- | --- |
| 290 µL/min/mg | O=C(NN1CCCCC1)c1ccc2c(c1)N=C(c1ccc(Cl)cn1)c1ccccc1S2 [drawing 1786] |
| 152 µL/min/mg | CCCCNC(=O)c1ccc2c(c1)N=C(c1cccc(F)c1)c1ccccc1S2 [drawing 1700] |
| 51 µL/min/mg | CC(C)CNC(=O)c1ccc2c(c1)N=C(c1ccc(Cl)cc1F)c1ccccc1S2 [drawing 1677] |
| 320 µL/min/mg | CCCCNC(=O)c1ccc2c(c1)N=C(c1ccc(Cl)cn1)c1ccccc1S2 [drawing 1704] |
| 31 µL/min/mg | O=C(NCc1ccc(F)cc1)c1ccc2c(c1)N=C(c1ccc(Cl)cc1)c1ccccc1[S+]2[O-] (stereo not shown) [drawing 1772] |
| 77 µL/min/mg | CC(C)CCNC(=O)c1ccc2c(c1)N=C(c1cccc(Cl)c1)c1ccccc1S2 [drawing 1665] |
| 318 µL/min/mg | C[C@@H]1CCC[C@H](C)N1NC(=O)c1ccc2c(c1)N=C(c1cccc(F)c1)c1ccccc1S2 [drawing 1758] |
| 108 µL/min/mg | O=C(NC1CCCCC1)c1ccc2c(c1)N=C(c1ccc(F)cc1)c1ccccc1S2 [drawing 1683] |
| 264 µL/min/mg | CCCCNC(=O)c1ccc2c(c1)N=C(c1ccc(F)cn1)c1ccccc1S2 [drawing 1752] |
| 48 µL/min/mg | O=C(NC1CCCCC1)c1ccc2c(c1)N=C(c1cccc(Cl)c1)c1ccccc1S2 [drawing 1675] |
| 107 µL/min/mg | O=C(NCc1cccnc1)c1ccc2c(c1)N=C(c1ccc(F)cc1)c1ccccc1S2 [drawing 1724] |
| 26 µL/min/mg | CC(C)CNC(=O)c1ccc2c(c1)N=C(c1ccc(Cl)c(Cl)c1)c1ccccc1S2 [drawing 1671] |
| 7 µL/min/mg | CCCCNC(=O)c1cc2c(cc1O)Sc1ccccc1C(c1ccc(Cl)cc1)=N2 [drawing 1672] |
| 111 µL/min/mg | CCCCNC(=O)c1ccc2c(c1)N=C(c1ccc(Cl)s1)c1cc(F)ccc1S2 [drawing 1710] |

Assay: Clearance study, liver microsomes (mice)
Conditions: mouse, pH 7.4

| Structure (SMILES) | microsomal CLint at 1 μM |
| --- | --- |
| CC(C)CCNC(=O)c1ccc2c(c1)N=C(c1ccccn1)c1ccccc1S2 [drawing 1784] | 68 µL/min/mg |
| CCCCNC(=O)c1ccc2c(c1)N=C(c1ccc(Cl)cc1)c1ccccc1S2 [drawing 1661] | 99 µL/min/mg |
| CC(C)CNC(=O)c1ccc2c(c1)N=C(c1ccc(F)cc1)c1ccccc1S2 [drawing 1761] | 354 µL/min/mg |
| O=C(NCc1ccco1)c1ccc2c(c1)N=C(c1ccc(Cl)c(Cl)c1)c1ccccc1S2 [drawing 1666] | 27 µL/min/mg |
| O=C(NCc1ccccc1)c1ccc2c(c1)N=C(c1ccc(Cl)cc1)c1ccccc1S2 [drawing 1801] | 166 µL/min/mg |
| O=C(NCc1ccccn1)c1ccc2c(c1)N=C(c1ccc(Cl)cc1)c1ccccc1S2 [drawing 1760] | 73 µL/min/mg |
| O=C(NCc1ccco1)c1ccc2c(c1)N=C(c1cccc(Cl)c1)c1ccccc1S2 [drawing 1684] | 133 µL/min/mg |
| CCCCNC(=O)c1ccc2c(c1)N=C(c1ccc(Cl)cc1)c1sccc1S2 [drawing 1717] | 79 µL/min/mg |
| CC(C)CNC(=O)c1ccc2c(c1)N=C(c1cccc(Cl)c1)c1ccccc1S2 [drawing 1795] | 69 µL/min/mg |
| O=C(NN1CCCCC1)c1ccc2c(c1)N=C(C1CCCCC1)c1ccccc1S2 [drawing 1695] | 349 µL/min/mg |

Second part, the compound after the results:

| microsomal CLint at 1 μM | Structure (SMILES) |
| --- | --- |
| 416 µL/min/mg | O=C(NN1CCCCC1)c1ccc2c(c1)N=C(c1ccc(Cl)cn1)c1ccccc1S2 [drawing 1786] |
| 647 µL/min/mg | CCCCNC(=O)c1ccc2c(c1)N=C(c1cccc(F)c1)c1ccccc1S2 [drawing 1700] |
| 98 µL/min/mg | CC(C)CNC(=O)c1ccc2c(c1)N=C(c1ccc(Cl)cc1F)c1ccccc1S2 [drawing 1677] |
| 477 µL/min/mg | CCCCNC(=O)c1ccc2c(c1)N=C(c1ccc(Cl)cn1)c1ccccc1S2 [drawing 1704] |
| 37 µL/min/mg | O=C(NCc1ccc(F)cc1)c1ccc2c(c1)N=C(c1ccc(Cl)cc1)c1ccccc1[S+]2[O-] (stereo not shown) [drawing 1772] |
| 249 µL/min/mg | CC(C)CCNC(=O)c1ccc2c(c1)N=C(c1cccc(Cl)c1)c1ccccc1S2 [drawing 1665] |
| 659 µL/min/mg | C[C@@H]1CCC[C@H](C)N1NC(=O)c1ccc2c(c1)N=C(c1cccc(F)c1)c1ccccc1S2 [drawing 1758] |
| 62 µL/min/mg | O=C(NC1CCCCC1)c1ccc2c(c1)N=C(c1ccc(F)cc1)c1ccccc1S2 [drawing 1683] |
| 668 µL/min/mg | CCCCNC(=O)c1ccc2c(c1)N=C(c1ccc(F)cn1)c1ccccc1S2 [drawing 1752] |
| 412 µL/min/mg | CC(C)CNC(=O)c1ccc2c(c1)N=C(c1ccc(Cl)s1)c1ccccc1S2 [drawing 1681] |
| 58 µL/min/mg | O=C(NC1CCCCC1)c1ccc2c(c1)N=C(c1cccc(Cl)c1)c1ccccc1S2 [drawing 1675] |
| 101 µL/min/mg | O=C(NCc1cccnc1)c1ccc2c(c1)N=C(c1ccc(F)cc1)c1ccccc1S2 [drawing 1724] |
| 107 µL/min/mg | CC(C)CNC(=O)c1ccc2c(c1)N=C(c1ccc(Cl)c(Cl)c1)c1ccccc1S2 [drawing 1671] |
| 12 µL/min/mg | CCCCNC(=O)c1cc2c(cc1O)Sc1ccccc1C(c1ccc(Cl)cc1)=N2 [drawing 1672] |
| 120 µL/min/mg | O=C(NCc1cccc(Cl)c1)c1ccc2c(c1)N=C(N1CCC(F)(F)CC1)c1ccccc1S2 [drawing 1800] |

Assay: Clearance study, liver microsomes (human)
Conditions: pH 7.4

| Structure (SMILES) | microsomal CLint at 1 μM |
| --- | --- |
| CC(C)CNC(=O)c1ccc2c(c1)N=C(c1ccc(F)cc1)c1ccccc1S2 [drawing 1761] | 43 µL/min/mg |
| O=C(NCc1ccco1)c1ccc2c(c1)N=C(c1ccc(Cl)c(Cl)c1)c1ccccc1S2 [drawing 1666] | 21 µL/min/mg |
| O=C(NCc1ccccc1)c1ccc2c(c1)N=C(c1ccc(Cl)cc1)c1ccccc1S2 [drawing 1801] | 23 µL/min/mg |
| O=C(NCc1ccccn1)c1ccc2c(c1)N=C(c1ccc(Cl)cc1)c1ccccc1S2 [drawing 1760] | 37 µL/min/mg |
| O=C(NCc1ccco1)c1ccc2c(c1)N=C(c1cccc(Cl)c1)c1ccccc1S2 [drawing 1684] | 35 µL/min/mg |
| O=C(NCCc1ccc(Cl)cc1)c1ccc2c(c1)N=C(c1cccc(Cl)c1)c1ccccc1S2 [drawing 1739] | 62 µL/min/mg |

Second part, the compound after the results:

| microsomal CLint at 1 μM | Structure (SMILES) |
| --- | --- |
| 64 µL/min/mg | O=C(NN1CCCCC1)c1ccc2c(c1)N=C(c1ccc(Cl)cn1)c1ccccc1S2 [drawing 1786] |
| 65 µL/min/mg | CCCCNC(=O)c1ccc2c(c1)N=C(c1cccc(F)c1)c1ccccc1S2 [drawing 1700] |
| 20 µL/min/mg | CC(C)CNC(=O)c1ccc2c(c1)N=C(c1ccc(Cl)cc1F)c1ccccc1S2 [drawing 1677] |
| 70 µL/min/mg | CCCCNC(=O)c1ccc2c(c1)N=C(c1ccc(Cl)cn1)c1ccccc1S2 [drawing 1704] |
| 11 µL/min/mg | O=C(NCc1ccc(F)cc1)c1ccc2c(c1)N=C(c1ccc(Cl)cc1)c1ccccc1[S+]2[O-] (stereo not shown) [drawing 1772] |
| 25 µL/min/mg | CC(C)CCNC(=O)c1ccc2c(c1)N=C(c1cccc(Cl)c1)c1ccccc1S2 [drawing 1665] |
| 513 µL/min/mg | C[C@@H]1CCC[C@H](C)N1NC(=O)c1ccc2c(c1)N=C(c1cccc(F)c1)c1ccccc1S2 [drawing 1758] |
| 31 µL/min/mg | O=C(NC1CCCCC1)c1ccc2c(c1)N=C(c1ccc(F)cc1)c1ccccc1S2 [drawing 1683] |
| 56 µL/min/mg | CCCCNC(=O)c1ccc2c(c1)N=C(c1ccc(F)cn1)c1ccccc1S2 [drawing 1752] |
| 12 µL/min/mg | O=C(NC1CCCCC1)c1ccc2c(c1)N=C(c1cccc(Cl)c1)c1ccccc1S2 [drawing 1675] |
| 61 µL/min/mg | O=C(NCc1cccnc1)c1ccc2c(c1)N=C(c1ccc(F)cc1)c1ccccc1S2 [drawing 1724] |
| 4 µL/min/mg | CC(C)CNC(=O)c1ccc2c(c1)N=C(c1ccc(Cl)c(Cl)c1)c1ccccc1S2 [drawing 1671] |
| 41 µL/min/mg | CCCCNC(=O)c1ccc2c(c1)N=C(c1ccc(Cl)s1)c1cc(F)ccc1S2 [drawing 1710] |
